Source: publication PMC12162873, “Modulating phosphatase DUSP22 with BML-260 ameliorates skeletal muscle wasting via Akt independent JNK-FOXO3a repression” (EMBO Molecular Medicine, 2025)
“And” between values parts separate entries of the source, which are not always exact repeats. Equal values may be shown once. Read-outs that look alike come from different tables or passages of the source.

Columns and labels:
[1] = parameters: method as in ref [9] Feng et al, 2019; conditions: pH range 3 to 7.4, HPLC; ref [9] Feng et al, 2019; cited from earlier work
[2] = molecular target: T1, GST-tagged-DUSP22 (Homo sapiens, UniProt Q9NRW4); test: DUSP22 phosphatase activity assay (EnzChek kit, DiFMUP substrate); format: biochemical; conditions: 45 min at room temperature, read-out: IC50, inhibition of DUSP22 activity
T1 construct: purchased Sigma-Aldrich SRP5021
T1 sequence (Q9NRW4 1-184): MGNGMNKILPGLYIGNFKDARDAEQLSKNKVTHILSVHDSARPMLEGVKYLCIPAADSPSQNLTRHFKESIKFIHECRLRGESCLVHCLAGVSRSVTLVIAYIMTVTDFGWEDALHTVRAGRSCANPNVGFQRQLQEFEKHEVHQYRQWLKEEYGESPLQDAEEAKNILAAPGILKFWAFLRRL
Protocol: The phosphatase activity of purified DUSP22 was measured using the EnzChek® Phosphatase Assay Kit (E12020, ThermoFisher, MA, USA) following the manufacturer’s instructions. In brief, for the assay a 200 µM 6,8-difluoro-4-methylumbelliferyl phosphate (DiFMUP) working solution was prepared. 50 µL DiFMUP solution was added to each well of a black-walled microplate, followed by a 50 µL sample containing GST-tagged-DUSP22 (SRP5021, Sigma-Aldrich, MO, USA) or 1X reaction buffer, to give a total reaction volume of 100 µL per well. BML-260 and 1X reaction buffer in a 50 µL volume were then added to each well. The microplate was incubated at room temperature for 45 min in the dark and fluorescence was measured at excitation 360 nm and emission 455 nm (SpectraMAX Gemini XS, Molecular Devices, CA, USA).
A) Phosphatase activity assay for DUSP22 and inhibition by BML-260. […] (n=4) B) CB-Dock2 molecular docking analysis of BML-260 binding to the active site of DUSP22, DUSP22 with an active site mutation (at C88S), and DUSP15, which is a DUSP member with the highest homology with DUSP22 (as assessed by sequence alignment).
BML-260 binding. BML-260 bound DUSP15 at the interface of the A and B chain, distinct from the predicted active site at position 85. n represents technical replicates analyzed by Stu-dent’s t test. […]

[3] = Pharmacokinetics analysis, TA muscle (LC-MS/MS); format: in vivo, mouse; conditions: for concentration at 0.5 h / concentration at 1 h / concentration at 1.5 h / concentration at 2 h / concentration at 6 h: male, C57BL/6J, mouse, tibialis anterior (TA) muscle, intraperitoneal, 5 mg/kg
Protocol: Assessment of BML-260 pharmacokinetics (PK) was carried out by the company Chaon, Yongin-si, Republic of Korea. BML-260 was administered intraperitoneally at a dose of 5 mg/kg in an injection volume of 10 mL/kg. A total of 21 6-week-old male C57BL/6J mice were divided into two groups as follows: 1) PK (plasma) group (3 mice) and 2) PK (TA muscle) group (18 mice across 6 time points).
For the PK (plasma) group, blood samples were collected at 0.5, 1, 1.5, 2, 6, 12, and 24 h after administration, using orbital sinus collection. Blood was centrifuged to obtain plasma that was then stored at −80 °C. For the PK (TA muscle) group, mice were euthanized at 0.5, 1, 1.5, 2, 6, and 12 h post-administration. The TA muscle was weighed and stored at −80 °C.
BML-260 levels in plasma and tissue samples were analyzed with liquid chromatography-tandem mass spectrometry (LC-MS/MS) using an Agilent 1200 HPLC system coupled with an AB Sciex 4000 QTrap MS/MS (Agilent Technologies, CA, USA). Quantification limits were determined based on a signal-to-noise ratio greater than 10, with precision below 20% and accuracy between 80% and 120%.

[4] = 5 mg/kg IP, as read by referee #2

Structure (SMILES): O=C(O)c1ccc(N2C(=O)C(=Cc3ccccc3)SC2=S)cc1 (stereo in doubt) [BML-260]
- stability at pH values within normal physiological conditions [1]: predicted to be stable
- IC50 [2]: 54 µM
- Muscle Conc. ([3]; 5 mg/kg (IP), 0.5 h, TA muscle, dilution factor 4, individual animals): 0.350 µg/g and 0.280 µg/g
- Muscle Conc. before dilution factor ([3]; 5 mg/kg (IP), 0.5 h, TA muscle, individual animals): 87.62 ng/mL and 70.09 ng/mL
- Muscle Conc. ([3]; 5 mg/kg (IP), 1 h, TA muscle, dilution factor 4, individual animals): 0.335 µg/g and 0.367 µg/g
- Muscle Conc. before dilution factor ([3]; 5 mg/kg (IP), 1 h, TA muscle, individual animals): 83.78 ng/mL and 91.76 ng/mL
- Muscle Conc. ([3]; 5 mg/kg (IP), 1.5 h, TA muscle, dilution factor 4, individual animals): 0.220 µg/g and 0.191 µg/g
- Muscle Conc. before dilution factor ([3]; 5 mg/kg (IP), 1.5 h, TA muscle, individual animals): 54.90 ng/mL and 47.79 ng/mL
- Muscle Conc. ([3]; 5 mg/kg (IP), 2 h, TA muscle, dilution factor 4, individual animals): 0.165 µg/g and 0.133 µg/g
- Muscle Conc. before dilution factor ([3]; 5 mg/kg (IP), 2 h, TA muscle, individual animals): 41.20 ng/mL and 33.33 ng/mL
- Muscle Conc. ([3]; 5 mg/kg (IP), 6 h, TA muscle, dilution factor 4, individual animals): 0.013 µg/g and 0.024 µg/g
- Muscle Conc. before dilution factor ([3]; 5 mg/kg (IP), 6 h, TA muscle, individual animals): 3.25 ng/mL and 5.89 ng/mL
- Muscle Conc. ([3]; 5 mg/kg (IP), 12 h, TA muscle, dilution factor 4, individual animals): BQL
- Muscle Conc. before dilution factor ([3]; 5 mg/kg (IP), 12 h, TA muscle, individual animals): 1.21 ng/mL and 0.79 ng/mL and 1.75 ng/mL
- Muscle Conc., Mean ([3]; 5 mg/kg (IP), 12 h, TA muscle, n = 3): BQL
- delay until peak detection in skeletal muscle (tibialis anterior) ([3]; 5 mg/kg IP): approximately 20 min
- skeletal muscle level relative to that needed for enzyme inhibition ([3]; 5 mg/kg IP): may not reach levels where it can function as an enzymatic inhibitor
- peak muscle level [3, 4]: ~ 0.35 ug/g tissue
- time of peak muscle level [3, 4]: ~ 1 hour
- half maximal inhibitor concentration in muscle ([3]; crude estimate of referee #2 with 1 g tissue = 1 ml): ~ 0.5 uM
- concentration at 0.5 h ([3]; 5 mg/kg (IP), 0.5 h, TA muscle, dilution factor 4, individual animals, read-out: Muscle Conc.): 338 ng/g
- concentration at 0.5 h ([3]; 5 mg/kg (IP), 0.5 h, TA muscle, individual animals, read-out: Muscle Conc. before dilution factor): 84.6 ng/mL
- concentration at 0.5 h ([3]; 5 mg/kg (IP), 0.5 h, TA muscle, n = 3, read-out: Muscle Conc., Mean): 323 ng/g
- concentration at 1 h ([3]; 5 mg/kg (IP), 1 h, TA muscle, dilution factor 4, individual animals, read-out: Muscle Conc.): 347 ng/g
- concentration at 1 h ([3]; 5 mg/kg (IP), 1 h, TA muscle, individual animals, read-out: Muscle Conc. before dilution factor): 86.7 ng/mL
- concentration at 1 h ([3]; 5 mg/kg (IP), 1 h, TA muscle, n = 3, read-out: Muscle Conc., Mean): 350 ng/g
- concentration at 1.5 h ([3]; 5 mg/kg (IP), 1.5 h, TA muscle, dilution factor 4, individual animals, read-out: Muscle Conc.): 231 ng/g
- concentration at 1.5 h ([3]; 5 mg/kg (IP), 1.5 h, TA muscle, individual animals, read-out: Muscle Conc. before dilution factor): 57.7 ng/mL
- concentration at 1.5 h ([3]; 5 mg/kg (IP), 1.5 h, TA muscle, n = 3, read-out: Muscle Conc., Mean): 214 ng/g
- concentration at 2 h ([3]; 5 mg/kg (IP), 2 h, TA muscle, dilution factor 4, individual animals, read-out: Muscle Conc.): 166 ng/g
- concentration at 2 h ([3]; 5 mg/kg (IP), 2 h, TA muscle, individual animals, read-out: Muscle Conc. before dilution factor): 41.5 ng/mL
- concentration at 2 h ([3]; 5 mg/kg (IP), 2 h, TA muscle, n = 3, read-out: Muscle Conc., Mean): 155 ng/g
- concentration at 6 h ([3]; 5 mg/kg (IP), 6 h, TA muscle, dilution factor 4, individual animals, read-out: Muscle Conc.): 16 ng/g
- concentration at 6 h ([3]; 5 mg/kg (IP), 6 h, TA muscle, individual animals, read-out: Muscle Conc. before dilution factor): 3.9 ng/mL
- concentration at 6 h ([3]; 5 mg/kg (IP), 6 h, TA muscle, n = 3, read-out: Muscle Conc., Mean): 17 ng/g
